From US20080153850A1, “Adamantyl Derivates as P2x7 Receptor Antagonists” (AstraZeneca AB, priority 2004, published 2008)
Counter-ions that a name gives are not always drawn.

Row | melting point | Structure (SMILES)
1 | 125 to 130 °C | Cc1ccc(-c2ccc(Cl)c(C(=O)NCC34CC5CC(CC(C5)C3)C4)c2)c(C(=O)O)n1 [Example 63, 3-[4-Chloro-3-[[(tricyclo[3.3.1.1^3,7]dec-1-ylmethyl)amino]carbonyl]phenyl]-6-methyl-2-pyridinecarboxylic acid]
2 | 85 to 92 °C | Cc1ccc(-c2ccccc2C(=O)O)cc1C(=O)NCC12CC3CC(CC(C3)C1)C2 [Example 67, 4′-Methyl-3′-[[(tricyclo[3.3.1.1^3,7]dec-1-ylmethyl)amino]carbonyl]-[1,1′-biphenyl]-2-carboxylic acid]
3 | 177 to 180 °C | Cc1ccnc(-c2ccc(Cl)c(C(=O)NCC34CC5CC(CC(C5)C3)C4)c2)c1C(=O)O [Example 53, 2-[4-Chloro-3-[[(tricyclo[3.3.1.1^3,7]dec-1-ylmethyl)amino]carbonyl]phenyl]-4-methyl-3-pyridinecarboxylic acid]
4 | 186 to 187 °C (dec.) | O=C(O)Cc1ncccc1-c1ccc(Cl)c(C(=O)NCC23CC4CC(CC(C4)C2)C3)c1 (as salt: sodium) [Example 58, 3-[4-Chloro-3-[[(tricyclo[3.3.1.1^3,7]dec-1-ylmethyl)amino]carbonyl]phenyl]-2-pyridineacetic acid, monosodium salt]
5 | 145 to 150 °C | O=C(NCC12CC3CC(CC(C3)C1)C2)c1cc(-c2cccnc2N2CC(C(=O)O)C2)ccc1Cl [Example 62, 1-[3-[4-Chloro-3-[[(tricyclo[3.3.1.1^3,7]dec-1-ylmethyl)amino]carbonyl]phenyl]-2-pyridinyl]-3-azetidinecarboxylic acid]
6 | 110 to 115 °C | O=C(NCC12CC3CC(CC(C3)C1)C2)c1cc(-c2cccnc2N2CCC(C(=O)O)CC2)ccc1Cl [Example 59, 1-[3-[4-Chloro-3-[[(tricyclo[3.3.1.1^3,7]dec-1-ylmethyl)amino]carbonyl]phenyl]-2-pyridinyl]-4-piperidinecarboxylic acid]
7 | 145 to 150 °C | O=C(NCC12CC3CC(CC(C3)C1)C2)c1cc(-c2cccnc2N2CCC(O)(C(=O)O)CC2)ccc1Cl [Example 65, 1-[3-[4-Chloro-3-[[(tricyclo[3.3.1.1^3,7]dec-1-ylmethyl)amino]carbonyl]phenyl]-2-pyridinyl]-4-hydroxy-4-piperidinecarboxylic acid]
8 | 121 to 125 °C | O=C(NCC12CC3CC(CC(C3)C1)C2)c1cc(-c2cc(F)c(F)cc2C(=O)O)ccc1Cl [Example 48, 4′-Chloro-4,5-difluoro-3′-[[(tricyclo[3.3.1.1^3,7]dec-1-ylmethyl)amino]carbonyl]-[1,1′-biphenyl]-2-carboxylic acid]
9 | 190 to 194 °C | O=C(O)CNc1cccnc1-c1ccc(Cl)c(C(=O)NCC23CC4CC(CC(C4)C2)C3)c1 [Example 47, N-[2-[4-Chloro-3-[[(tricyclo[3.3.1.1^3,7]dec-1-ylmethyl)amino]carbonyl]phenyl]-3-pyridinyl]-glycine]
10 | 133 to 137 °C | O=C(O)COc1cccnc1-c1ccc(Cl)c(C(=O)NCC23CC4CC(CC(C4)C2)C3)c1 [Example 46, [[2-[4-Chloro-3-[[(tricyclo[3.3.1.1^3,7]dec-1-ylmethyl)amino]carbonyl]phenyl]-3-pyridinyl]oxy]-acetic acid]
11 | 134 to 138 °C | O=C(NCC12CC3CC(CC(C3)C1)C2)c1cc(-c2ccccc2C(=O)O)ncc1Cl [Example 52, 2-[5-Chloro-4-[[(tricyclo[3.3.1.1^3,7]dec-1-ylmethyl)amino]carbonyl]-2-pyridinyl]-benzoic acid]
12 | 227 °C | Cc1ccc(-c2cccc(C(=O)O)n2)cc1C(=O)NCC12CC3CC(CC(C3)C1)C2 [Example 69, 6-[4-Methyl-3-[[(tricyclo[3.3.1.1^3,7]dec-1-ylmethyl)amino]carbonyl]phenyl]-2-pyridinecarboxylic acid]
13 | 172 to 177 °C | CC(=O)Nc1ccc(-c2ccc(Cl)c(C(=O)NCC34CC5CC(CC(C5)C3)C4)c2)c(C)n1 [Example 73, 5-[6-(Acetylamino)-2-methyl-3-pyridinyl]-2-chloro-N-(tricyclo[3.3.1.1^3,7]dec-1-ylmethyl)-benzamide]
14 | 220 to 225 °C | O=C(O)c1cc(C(F)(F)F)cc(-c2ccc(Cl)c(C(=O)NCC34CC5CC(CC(C5)C3)C4)c2)n1 [Example 72, 6-[4-Chloro-3-[[(tricyclo[3.3.1.1^3,7]dec-1-ylmethyl)amino]carbonyl]phenyl]-4-(trifluoromethyl)-2-pyridinecarboxylic acid]
15 | 130 to 135 °C | O=C(NCC12CC3CC(CC(C3)C1)C2)c1cc(-c2cc(F)cnc2N2CCC(C(=O)O)CC2)ccc1Cl [Example 66, 1-[3-[4-Chloro-3-[[(tricyclo[3.3.1.1^3,7]dec-1-ylmethyl)amino]carbonyl]phenyl]-5-fluoro-2-pyridinyl]-4-piperidinecarboxylic acid]

More lines, now with the values behind:

Row | Structure (SMILES) | melting point
16 | O=C(NCC12CC3CC(CC(C3)C1)C2)c1cc(-c2nccnc2N2CCC(C(=O)O)CC2)ccc1Cl [Example 34, 1-[3-[4-Chloro-3-[[(tricyclo[3.3.1.1^3,7]dec-1-ylmethyl)amino]carbonyl]phenyl]pyrazinyl]-4-piperidinecarboxylic acid] | 136 to 140 °C
17 | Cc1ccc(-c2ccc(Cl)c(C(=O)NCC34CC5CC(CC(C5)C3)C4)c2)c(C(=O)O)c1 [Example 24, 4′-Chloro-4-methyl-3′-[[(tricyclo[3.3.1.1^3,7]dec-1-ylmethyl)amino]carbonyl]-[1,1′-biphenyl]-2-carboxylic acid] | 214 to 216 °C
18 | C[C@H](Oc1cccc(-c2ccc(Cl)c(C(=O)NCC34CC5CC(CC(C5)C3)C4)c2)c1)C(=O)O [Example 41, (2S)-2-[[4′-Chloro-3′-[[(tricyclo[3.3.1.1^3,7]dec-1-ylmethyl)amino]carbonyl][1,1′-biphenyl]-3-yl]oxy]-propanoic acid] | 115 to 120 °C
19 | O=C(NCC12CC3CC(CC(C3)C1)C2)c1cc(-c2ccc(Cl)cc2C(=O)O)ccc1Cl [Example 42, 4,4′-Dichloro-3′-[[(tricyclo[3.3.1.1^3,7]dec-1-ylmethyl)amino]carbonyl]-[1,1′-biphenyl]-2-carboxylic acid] | 207 to 210 °C
20 | COc1ccc(-c2ccc(Cl)c(C(=O)NCC34CC5CC(CC(C5)C3)C4)c2)c(C(=O)O)c1 [Example 30, 4′-Chloro-4-methoxy-3′-[[(tricyclo[3.3.1.1^3,7]dec-1-ylmethyl)amino]carbonyl]-[1,1′-biphenyl]-2-carboxylic acid] | 219 to 221 °C
21 | C[C@@H](Oc1ccccc1-c1ccc(Cl)c(C(=O)NCC23CC4CC(CC(C4)C2)C3)c1)C(=O)O [Example 39, (2R)-2-[[4′-Chloro-3′-[[(tricyclo[3.3.1.1^3,7]dec-1-ylmethyl)amino]carbonyl][1,1′-biphenyl]-2-yl]oxy]-propanoic acid] | 133 to 137 °C
22 | O=C(O)c1cccc(-c2ccc(Cl)c(C(=O)NCC34CC5CC(CC(C5)C3)C4)c2)c1 [Example 2, 4′-Chloro-3′-[[(tricyclo[3.3.1.1^3,7]dec-1-ylmethyl)amino]carbonyl]-[1,1′-biphenyl]-3-carboxylic acid] | 255 to 257 °C
23 | O=C(NCC12CC3CC(CC(C3)C1)C2)c1cc(-c2ncccc2C(=O)O)ccc1Cl [Example 10, 2-[4-Chloro-3-[[(tricyclo[3.3.1.1^3,7]dec-1-ylmethyl)amino]carbonyl]phenyl]-3-pyridinecarboxylic acid] | 169 to 172 °C
24 | CN(CC(=O)O)c1nccnc1-c1ccc(Cl)c(C(=O)NCC23CC4CC(CC(C4)C2)C3)c1 [Example 33, N-[3-[4-Chloro-3-[[(tricyclo[3.3.1.1^3,7]dec-1-ylmethyl)amino]carbonyl]phenyl]pyrazinyl]-N-methyl-glycine] | 151 to 153 °C (dec.)
25 | N#CNc1nccnc1-c1ccc(Cl)c(C(=O)NCC23CC4CC(CC(C4)C2)C3)c1 [Example 5, 2-Chloro-5-[3-(cyanamino)pyrazinyl]-N-(tricyclo[3.3.1.1^3,7]dec-1-ylmethyl)-benzamide] | 110 to 115 °C (dec.)
26 | Cc1ccc(C(=O)O)c(-c2ccc(Cl)c(C(=O)NCC34CC5CC(CC(C5)C3)C4)c2)n1 [Example 13, 2-[4-Chloro-3-[[(tricyclo[3.3.1.1^3,7]dec-1-ylmethyl)amino]carbonyl]phenyl]-6-methyl-3-pyridinecarboxylic acid] | 209 to 211 °C
27 | Cc1cccc(C(=O)O)c1-c1ccc(Cl)c(C(=O)NCC23CC4CC(CC(C4)C2)C3)c1 [Example 18, 4′-Chloro-6-methyl-3′-[[(tricyclo[3.3.1.1^3,7]dec-1-ylmethyl)amino]carbonyl]-[1,1′-biphenyl]-2-carboxylic acid] | 151 to 154 °C
28 | O=C(O)COc1ccccc1-c1ccc(Cl)c(C(=O)NCC23CC4CC(CC(C4)C2)C3)c1 [Example 15, [[4′-Chloro-3′-[[(tricyclo[3.3.1.1^3,7]dec-1-ylmethyl)amino]carbonyl][1,1′-biphenyl]-2-yl]oxy]-acetic acid] | 208 to 210 °C
29 | O=C(O)c1coc(-c2ccc(Cl)c(C(=O)NCC34CC5CC(CC(C5)C3)C4)c2)n1 [Example 23, 2-[4-Chloro-3-[[(tricyclo[3.3.1.1^3,7]dec-1-ylmethyl)amino]carbonyl]phenyl]-4-oxazolecarboxylic acid] | 254 to 257 °C
30 | CS(=O)(=O)Nc1cccc(-c2ccc(Cl)c(C(=O)NCC34CC5CC(CC(C5)C3)C4)c2)n1 [Example 27, 2-Chloro-5-[6-[(methylsulfonyl)amino]-2-pyridinyl]-N-(tricyclo[3.3.1.1^3,7]dec-1-ylmethyl)-benzamide] | 115 to 120 °C
31 | O=C(O)COc1ncccc1-c1ccc(Cl)c(C(=O)NCC23CC4CC(CC(C4)C2)C3)c1 [Example 28, [[3-[4-Chloro-3-[[(tricyclo[3.3.1.1^3,7]dec-1-ylmethyl)amino]carbonyl]phenyl]-2-pyridinyl]oxy]-acetic acid] | 226 to 229 °C
32 | O=C(NCC12CC3CC(CC(C3)C1)C2)c1cc(-c2ccccc2C(=O)O)ccc1Cl [Example 3, 4′-Chloro-3′-[[(tricyclo[3.3.1.1^3,7]dec-1-ylmethyl)amino]carbonyl]-[1,1′-biphenyl]-2-carboxylic acid] | 228 to 230 °C
